Experimental data taken from patent US9738634B2, “Heterocyclic amide compound and herbicide” (SYNGENTA PARTICIPATIONS AG, priority 2013, dated 2017).

How the values were obtained:
Assay type in all cases: in vivo
Conditions in all cases: treatment dosage 320 g/ha
directly sown rice [1] = assay: Test Example 3: soil treatment, effect on crop; b: directly sown rice
Summary of the method: (§1)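 Crop and weed responses were judged three weeks after a uniform surface spray of the water-diluted emulsion at the given g/ha rate. Seeds sat beneath about 1.5 cm of sterilized diluvial soil, and boxes stood in a greenhouse at 25 to 30° C.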

Indian mallow [2] = assay: Test Example 4: weedkilling efficacy by foliar treatment; K: Indian mallow
Summary of the method: (§2)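 Seeds are spot-sown into sterilized diluvial soil and covered with about 1.5 cm of soil. After 14 days' greenhouse growth at 25 to 30° C, plants are sprayed on stems and leaves with diluted emulsion at the stated g/ha rate, then scored at 3 weeks.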

oval-leafed pondweed [3] = assay: Test Example 1: weedkilling efficacy, preemergent weed treatment in the submerged state; C: oval-leafed pondweed
Summary of the method: (§3)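 Pre-emergence application onto floodwater (4 cm, alluvial soil) on the day of sowing, dose expressed as g/ha from diluted emulsion formulation. Weeds sown with 2.5-leaf transplanted rice as crop; plants held at 25–30 °C in greenhouse and scored against assessment criteria after 3 weeks.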

barnyard grass [4] = assay: Test Example 2: weedkilling efficacy, growth period weed treatment in the submerged state; A: barnyard grass
Summary of the method: (§4)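 Weeds treated at the 1-2 leaf stage by application of diluted emulsion onto floodwater (4 cm depth, alluvial soil) at specified g/ha. Grown in greenhouse at 25 to 30° C; herbicidal effect rated three weeks after treatment.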

birds-eye speedwell [5] = assay: Test Example 4: weedkilling efficacy by foliar treatment; p: birds-eye speedwell
Summary of the method: as §2

Indian mallow [6] = assay: Test Example 3: weedkilling efficacy through soil treatment; K: Indian mallow
Summary of the method: as §1

bulrush [7] = assay: Test Example 2: weedkilling efficacy, growth period weed treatment in the submerged state; B: bulrush
Summary of the method: as §4

rapeseed [8] = assay: Test Example 4: foliar treatment, effect on crop; g: rapeseed
Summary of the method: as §2

birds-eye speedwell [9] = assay: Test Example 3: weedkilling efficacy through soil treatment; p: birds-eye speedwell
Summary of the method: as §1

fig-leafed goosefoot = assay: Test Example 3: weedkilling efficacy through soil treatment; M: fig-leafed goosefoot
Summary of the method: as §1

crabgrass [10] = assay: Test Example 3: weedkilling efficacy through soil treatment; D: crabgrass
Summary of the method: as §1

wild oat [11] = assay: Test Example 3: weedkilling efficacy through soil treatment; G: wild oat
Summary of the method: as §1

crabgrass [12] = assay: Test Example 4: weedkilling efficacy by foliar treatment; D: crabgrass
Summary of the method: as §2

catchweed [13] = assay: Test Example 4: weedkilling efficacy by foliar treatment; O: catchweed
Summary of the method: as §2

beet [14] = assay: Test Example 3: soil treatment, effect on crop; f: beet
Summary of the method: as §1

catchweed [15] = assay: Test Example 3: weedkilling efficacy through soil treatment; O: catchweed
Summary of the method: as §1

redroot pigweed [16] = assay: Test Example 4: weedkilling efficacy by foliar treatment; L: redroot pigweed
Summary of the method: as §2

wild oat [17] = assay: Test Example 4: weedkilling efficacy by foliar treatment; G: wild oat
Summary of the method: as §2

green foxtail [18] = assay: Test Example 4: weedkilling efficacy by foliar treatment; E: green foxtail
Summary of the method: as §2

black-grass [19] = assay: Test Example 4: weedkilling efficacy by foliar treatment; H: black-grass
Summary of the method: as §2

rapeseed [20] = assay: Test Example 3: soil treatment, effect on crop; g: rapeseed
Summary of the method: as §1

green foxtail [21] = assay: Test Example 3: weedkilling efficacy through soil treatment; E: green foxtail
Summary of the method: as §1

wheat [22] = assay: Test Example 3: soil treatment, effect on crop; e: wheat
Summary of the method: as §1

corn [23] = assay: Test Example 3: soil treatment, effect on crop; c: corn
Summary of the method: as §1

barnyard grass [24] = assay: Test Example 3: weedkilling efficacy through soil treatment; F: barnyard grass
Summary of the method: as §1

Italian ryegrass [25] = assay: Test Example 4: weedkilling efficacy by foliar treatment; I: Italian ryegrass
Summary of the method: as §2

Italian ryegrass [26] = assay: Test Example 3: weedkilling efficacy through soil treatment; I: Italian ryegrass
Summary of the method: as §1

beet [27] = assay: Test Example 4: foliar treatment, effect on crop; f: beet
Summary of the method: as §2

wheat [28] = assay: Test Example 4: foliar treatment, effect on crop; e: wheat
Summary of the method: as §2

transplanted rice = assay: Test Example 1: preemergent weed treatment in the submerged state, effect on crop; a: transplanted rice
Summary of the method: as §3

soybean [29] = assay: Test Example 3: soil treatment, effect on crop; d: soybean
Summary of the method: as §1

directly sown rice [30] = assay: Test Example 4: foliar treatment, effect on crop; b: directly sown rice
Summary of the method: as §2

soybean [31] = assay: Test Example 4: foliar treatment, effect on crop; d: soybean
Summary of the method: as §2

corn [32] = assay: Test Example 4: foliar treatment, effect on crop; c: corn
Summary of the method: as §2

common wind-grass [33] = assay: Test Example 4: weedkilling efficacy by foliar treatment; J: common wind-grass
Summary of the method: as §2

oval-leafed pondweed [34] = assay: Test Example 2: weedkilling efficacy, growth period weed treatment in the submerged state; C: oval-leafed pondweed
Summary of the method: as §4

barnyard grass [35] = assay: Test Example 4: weedkilling efficacy by foliar treatment; F: barnyard grass
Summary of the method: as §2

chickweed [36] = assay: Test Example 3: weedkilling efficacy through soil treatment; N: chickweed
Summary of the method: as §1

common wind-grass [37] = assay: Test Example 3: weedkilling efficacy through soil treatment; J: common wind-grass
Summary of the method: as §1

bulrush [38] = assay: Test Example 1: weedkilling efficacy, preemergent weed treatment in the submerged state; B: bulrush
Summary of the method: as §3

redroot pigweed [39] = assay: Test Example 3: weedkilling efficacy through soil treatment; L: redroot pigweed
Summary of the method: as §1

chickweed [40] = assay: Test Example 4: weedkilling efficacy by foliar treatment; N: chickweed
Summary of the method: as §2

black-grass [41] = assay: Test Example 3: weedkilling efficacy through soil treatment; H: black-grass
Summary of the method: as §1

barnyard grass [42] = assay: Test Example 1: weedkilling efficacy, preemergent weed treatment in the submerged state; A: barnyard grass
Summary of the method: as §3

With `CC1=C(c2ccccc2)C(=O)N(C(C)(C)C(=O)Nc2cccc(CF)n2)CO1` [B-2-56] the “b (directly sown rice) effect on crop grade” value (directly sown rice [1]) was 2 (weed kill ratio 20% or more, less than 40%), the “K (Indian mallow) weedkilling efficacy grade” value (Indian mallow [2]) was 0 (weed kill ratio 5% or less (practically no effect)) and the “C (oval-leafed pondweed) weedkilling efficacy grade” value (oval-leafed pondweed [3]) was 5 (weed kill ratio 90% or more, (practically complete withering)). For the same compound, the “A (barnyard grass) weedkilling efficacy grade” value (barnyard grass [4]) was 5 (weed kill ratio 90% or more, (practically complete withering)), the “P (birds-eye speedwell) weedkilling efficacy grade” value (birds-eye speedwell [5]) was 4 (weed kill ratio 70% or more, less than 90%) and the “K (Indian mallow) weedkilling efficacy grade” value (Indian mallow [6]) was 0 (weed kill ratio 5% or less (practically no effect)). For the same compound, the “B (bulrush) weedkilling efficacy grade” value (bulrush [7]) was 5 (weed kill ratio 90% or more, (practically complete withering)), the “g (rapeseed) effect on crop grade” value (rapeseed [8]) was 3 (weed kill ratio 40% or more, less than 70%) and the “P (birds-eye speedwell) weedkilling efficacy grade” value (birds-eye speedwell [9]) was 5 (weed kill ratio 90% or more, (practically complete withering)). The “M (fig-leafed goosefoot) weedkilling efficacy grade” value (fig-leafed goosefoot) was 4 (weed kill ratio 70% or more, less than 90%), the “D (crabgrass) weedkilling efficacy grade” value (crabgrass [10]) was 5 (weed kill ratio 90% or more, (practically complete withering)) and the “G (wild oat) weedkilling efficacy grade” value (wild oat [11]) was 3 (weed kill ratio 40% or more, less than 70%). The “D (crabgrass) weedkilling efficacy grade” value (crabgrass [12]) was 5 (weed kill ratio 90% or more, (practically complete withering)), the “O (catchweed) weedkilling efficacy grade” value (catchweed [13]) was 4 (weed kill ratio 70% or more, less than 90%) and the “f (beet) effect on crop grade” value (beet [14]) was 2 (weed kill ratio 20% or more, less than 40%). For the same compound, the “O (catchweed) weedkilling efficacy grade” value (catchweed [15]) was 5 (weed kill ratio 90% or more, (practically complete withering)), the “L (redroot pigweed) weedkilling efficacy grade” value (redroot pigweed [16]) was 3 (weed kill ratio 40% or more, less than 70%) and the “G (wild oat) weedkilling efficacy grade” value (wild oat [17]) was 5 (weed kill ratio 90% or more, (practically complete withering)). The “E (green foxtail) weedkilling efficacy grade” value (green foxtail [18]) was 5 (weed kill ratio 90% or more, (practically complete withering)), the “H (black-grass) weedkilling efficacy grade” value (black-grass [19]) was 4 (weed kill ratio 70% or more, less than 90%) and the “g (rapeseed) effect on crop grade” value (rapeseed [20]) was 1 (weed kill ratio 5% or more, less than 20%). For the same compound, the “E (green foxtail) weedkilling efficacy grade” value (green foxtail [21]) was 5 (weed kill ratio 90% or more, (practically complete withering)), the “e (wheat) effect on crop grade” value (wheat [22]) was 1 (weed kill ratio 5% or more, less than 20%) and the “c (corn) effect on crop grade” value (corn [23]) was 1 (weed kill ratio 5% or more, less than 20%). The “F (barnyard grass) weedkilling efficacy grade” value (barnyard grass [24]) was 5 (weed kill ratio 90% or more, (practically complete withering)), the “I (Italian ryegrass) weedkilling efficacy grade” value (Italian ryegrass [25]) was 5 (weed kill ratio 90% or more, (practically complete withering)) and the “I (Italian ryegrass) weedkilling efficacy grade” value (Italian ryegrass [26]) was 5 (weed kill ratio 90% or more, (practically complete withering)). The “f (beet) effect on crop grade” value (beet [27]) was 3 (weed kill ratio 40% or more, less than 70%), the “e (wheat) effect on crop grade” value (wheat [28]) was 3 (weed kill ratio 40% or more, less than 70%) and the “a (transplanted rice) effect on crop grade” value (transplanted rice) was 1 (weed kill ratio 5% or more, less than 20%). The “d (soybean) effect on crop grade” value (soybean [29]) was 0 (weed kill ratio 5% or less (practically no effect)), the “b (directly sown rice) effect on crop grade” value (directly sown rice [30]) was 4 (weed kill ratio 70% or more, less than 90%) and the “d (soybean) effect on crop grade” value (soybean [31]) was 4 (weed kill ratio 70% or more, less than 90%). The “c (corn) effect on crop grade” value (corn [32]) was 5 (weed kill ratio 90% or more, (practically complete withering)), the “J (common wind-grass) weedkilling efficacy grade” value (common wind-grass [33]) was 5 (weed kill ratio 90% or more, (practically complete withering)) and the “C (oval-leafed pondweed) weedkilling efficacy grade” value (oval-leafed pondweed [34]) was 5 (weed kill ratio 90% or more, (practically complete withering)). For the same compound, the “F (barnyard grass) weedkilling efficacy grade” value (barnyard grass [35]) was 4 (weed kill ratio 70% or more, less than 90%), the “N (chickweed) weedkilling efficacy grade” value (chickweed [36]) was 4 (weed kill ratio 70% or more, less than 90%) and the “J (common wind-grass) weedkilling efficacy grade” value (common wind-grass [37]) was 5 (weed kill ratio 90% or more, (practically complete withering)). For the same compound, the “B (bulrush) weedkilling efficacy grade” value (bulrush [38]) was 5 (weed kill ratio 90% or more, (practically complete withering)), the “L (redroot pigweed) weedkilling efficacy grade” value (redroot pigweed [39]) was 2 (weed kill ratio 20% or more, less than 40%) and the “N (chickweed) weedkilling efficacy grade” value (chickweed [40]) was 4 (weed kill ratio 70% or more, less than 90%). For the same compound, the “H (black-grass) weedkilling efficacy grade” value (black-grass [41]) was 5 (weed kill ratio 90% or more, (practically complete withering)) and the “A (barnyard grass) weedkilling efficacy grade” value (barnyard grass [42]) was 5 (weed kill ratio 90% or more, (practically complete withering)).
